Data on three molecules can be found in patent publication US20230235022A1, “NEUTROPHIL ELASTASE BINDING PEPTIDES AND COMPOSITIONS THEREOF” (CASE WESTERN RESERVE UNIVERSITY, priority 2020, published 2023).

The nature of data set [1]: Lethality after intravenous administration of HCQ in mouse. Type of data set: in vivo.
In a further data set the test system is neutrophils. Briefly: Neutrophil viability with free or encapsulated HCQ. Type of data set: cell-based.
Data set [2] has as its target RCL-derived NE binding peptide (NEBP).

On to `CCN(CCO)CCCC(C)Nc1ccnc2cc(Cl)ccc12` (stereo not shown) [free HCQ, hydroxychloroquine], for which, in data set [1], the lethality entry is “high lethality”. Moreover, the “concentration at which neutrophil viability is affected” value in the data set on neutrophils is on record as ≥ 10^3 ng/ml.

B1: mouse neutrophil elastase (m-NE) (protein)
chain: IVGGRPARPHAWPFMASLQRRGGHFCGATLIARNFVMSAAHCVNGLNFRSVQVVLGAHDLRRQERTRQTFSVQRIFENGFDPSQLLNDIVIIQLNGSATINANVQVAQLPAQGQGVGDRTPCLAMGWGRLGTNRPSPSVLQELNVTVVTNMCRRRVNVCTLVPRRQAGICFGDSGGPLVCNNLVQGIDSFIRGGCGSGLYPDAFAPVAEFADWINSIIRSHNDHLLTHPKDREGRTN
As for B1, the “HPLC-based analysis of cleavage by NE” value in data set [2] is given as “such peptides are not cleaved by NE”.

B2: human neutrophil elastase (h-NE) (protein)
chain: IVGGRRARPHAWPFMVSLQLRGGHFCGATLIAPNFVMSAAHCVANVNVRAVRVVLGAHNLSRREPTRQVFAVQRIFENGYDPVNLLNDIVILQLNGSATINANVQVAQLPAQGRRLGNGVQCLAMGWGLLGRNRGIASVLQELNVTVVTSLCRRSNVCTLVRGRQAGVCFGDSGSPLVCNGLIHGIASFVRGGCASGLYPDAFAPVAQFVNWIDSIIQ
As for B2, in data set [2], the “HPLC-based analysis of cleavage by NE” value is listed as “such peptides are not cleaved by NE”.
